Where “and” joins values, the source holds several entries; their conditions need not be identical. Equal entries are not always repeated. Inconclusive results and toxic doses are left out.
Tested on: P388 leukemia ip, CD2F1 mice, survival T/C
Assay: NCI In Vivo Anticancer Drug Screen. Data for tumor model P388 Leukemia (intraperitoneal) in CD2F1 (CDF1) mice
Settings: endpoint: median survival time, higher = longer survival
Summary of the method: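 Mice carrying the transplanted tumor received test compound or vehicle. Survival was recorded in each group, and the value is the treated-group measurement divided by that of the vehicle-treated control group.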

[1] = dose: 100.0 mg/kg/injection, schedule: Q04DX002 (ip), vehicle: Klucel (hydroxypropylcellulose) (HPC)
[2] = dose: 200.0 mg/kg/injection, schedule: Q04DX002 (ip), vehicle: Klucel (hydroxypropylcellulose) (HPC)
[3] = dose: 50.0 mg/kg/injection, schedule: Q01DX005 (ip), vehicle: Klucel (hydroxypropylcellulose) (HPC)
[4] = dose: 100.0 mg/kg/injection, schedule: Q01DX005 (ip), vehicle: Klucel (hydroxypropylcellulose) (HPC)
[5] = dose: 200.0 mg/kg/injection, schedule: Q01DX005 (ip), vehicle: Klucel (hydroxypropylcellulose) (HPC)
[6] = dose: 60.0 mg/kg/injection, schedule: Q01DX005 (ip), vehicle: saline with Tween-80
[7] = dose: 120.0 mg/kg/injection, schedule: Q01DX005 (ip), vehicle: saline with Tween-80
[8] = dose: 240.0 mg/kg/injection, schedule: Q01DX005 (ip), vehicle: saline with Tween-80
[9] = dose: 50.0 mg/kg/injection, schedule: Q04DX003 (ip), vehicle: Klucel (hydroxypropylcellulose) (HPC)
[10] = dose: 100.0 mg/kg/injection, schedule: Q04DX003 (ip), vehicle: Klucel (hydroxypropylcellulose) (HPC)
[11] = dose: 50.0 mg/kg/injection, schedule: Q01DX009 (ip), vehicle: saline
[12] = dose: 100.0 mg/kg/injection, schedule: Q01DX009 (ip), vehicle: saline
[13] = dose: 400.0 mg/kg/injection, schedule: Q04DX002 (ip), vehicle: Klucel (hydroxypropylcellulose) (HPC)
[14] = dose: 50.0 mg/kg/injection, schedule: Q01DX005 (ip), vehicle: saline with Tween-80
[15] = dose: 100.0 mg/kg/injection, schedule: Q01DX005 (ip), vehicle: saline with Tween-80
[16] = dose: 200.0 mg/kg/injection, schedule: Q01DX009 (ip), vehicle: saline
[17] = dose: 50.0 mg/kg/injection, schedule: Q01DX009 (ip), vehicle: Klucel (hydroxypropylcellulose) (HPC)
[18] = dose: 100.0 mg/kg/injection, schedule: Q01DX009 (ip), vehicle: Klucel (hydroxypropylcellulose) (HPC)

COc1cccc(-c2nnc(-c3nc[nH]c3C)o2)c1
T/C [1]: 100 % of control | T/C [2]: 95 % of control

Cc1ccc(O)c(C(=NCCCCN=C(c2ccccc2)c2cc(C)ccc2O)c2ccccc2)c1
T/C [3]: 99 % of control | T/C [4]: 94 % of control | T/C [5]: 99 % of control

CN(C)c1ccc(NC(=O)c2ccccc2O)cc1
T/C (dose: 50.0 mg/kg/injection, schedule: Q01DX009 (ip), vehicle: saline with Tween-80): 113 % of control | T/C (dose: 100.0 mg/kg/injection, schedule: Q01DX009 (ip), vehicle: saline with Tween-80): 104 % of control | T/C (dose: 200.0 mg/kg/injection, schedule: Q01DX009 (ip), vehicle: saline with Tween-80): 99 % of control

CC1CCC2C(C)(C)C3CC12CC1OC13C (configuration not stated)
T/C [6]: 100 % of control | T/C [7]: 91 % of control | T/C [8]: 96 % of control

CCCNN1CCN(c2ccncc2S(=O)(=O)N2CCCCC2)CC1
T/C (dose: 60.0 mg/kg/injection, schedule: Q01DX005 (ip), vehicle: Klucel (hydroxypropylcellulose) (HPC)): 98 % of control | T/C (dose: 120.0 mg/kg/injection, schedule: Q01DX005 (ip), vehicle: Klucel (hydroxypropylcellulose) (HPC)): 99 % of control | T/C (dose: 240.0 mg/kg/injection, schedule: Q01DX005 (ip), vehicle: Klucel (hydroxypropylcellulose) (HPC)): 94 % of control

CCCCSP(Oc1ccccc1)SCCCC
T/C (dose: 25.0 mg/kg/injection, schedule: Q04DX003 (ip), vehicle: Klucel (hydroxypropylcellulose) (HPC)): 100 % of control | T/C [9]: 108 % of control | T/C [10]: 109 % of control

Cc1c2ccccc2c(C)c2c1cc(F)c1ccccc12
T/C [9]: 105 % of control | T/C [10]: 105 % of control | T/C (dose: 200.0 mg/kg/injection, schedule: Q04DX003 (ip), vehicle: Klucel (hydroxypropylcellulose) (HPC)): 113 % of control | T/C (dose: 400.0 mg/kg/injection, schedule: Q04DX003 (ip), vehicle: Klucel (hydroxypropylcellulose) (HPC)): 117 % of control

COc1cc(C)c(C)cc1C1(c2cc(C)c(C)cc2O)C(=O)c2ccccc2C1=O
T/C [11]: 100 % of control | T/C [12]: 93 % of control

CC(C)(C)c1cc(C(C)(C)C)c2oc(C(=O)O)cc(=O)c2c1
T/C [11]: 95 % of control | T/C [12]: 97 % of control

c1ccc(C23CC2COP3(c2ccccc2)(c2ccccc2)c2ccccc2)cc1 (configuration not stated)
T/C (dose: 6.25 mg/kg/injection, schedule: Q01DX009 (ip), vehicle: suspension in saline): 90 % of control | T/C (dose: 12.5 mg/kg/injection, schedule: Q01DX009 (ip), vehicle: suspension in saline): 98 % of control | T/C (dose: 25.0 mg/kg/injection, schedule: Q01DX009 (ip), vehicle: suspension in saline): 93 % of control

C/C(=C\Cc1cc(O)cc(C)c1O)CC(=O)CC1(C)CCCC1(C)C(=O)/C=C/C(C)(C)O (configuration not stated)
T/C (dose: 1.5 mg/kg/injection, schedule: Q01DX009 (ip), vehicle: saline with Tween-80): 110 % of control | T/C (dose: 3.0 mg/kg/injection, schedule: Q01DX009 (ip), vehicle: saline with Tween-80): 101 % of control | T/C (dose: 6.0 mg/kg/injection, schedule: Q01DX009 (ip), vehicle: saline with Tween-80): 104 % of control | T/C (dose: 12.0 mg/kg/injection, schedule: Q01DX009 (ip), vehicle: saline with Tween-80): 103 % of control

CCOC(=O)Cc1c[nH]c2ccc(N(CCCl)CCCl)cc12
T/C (dose: 5.0 mg/kg/injection, schedule: Q04DX003 (ip), vehicle: Klucel (hydroxypropylcellulose) (HPC)): 204 % of control | T/C (dose: 8.0 mg/kg/injection, schedule: Q04DX003 (ip), vehicle: Klucel (hydroxypropylcellulose) (HPC)): 245 % of control | T/C (dose: 12.5 mg/kg/injection, schedule: Q04DX003 (ip), vehicle: Klucel (hydroxypropylcellulose) (HPC)): 245 % of control

CCS(=O)c1ccccc1 (configuration not stated)
T/C [1]: 100 % of control | T/C [2]: 100 % of control | T/C [13]: 102 % of control

N#Cc1c(-c2ccc(Cl)cc2)cn2c1[nH]c(=O)c1c3c(sc12)CCCC3
T/C [6]: 87 % of control | T/C [7]: 86 % of control

O=C1CN(c2cccc(Cl)c2)C(=O)CN1/N=C/c1ccc[nH]1
T/C [14]: 92 % of control | T/C [15]: 102 % of control | T/C (dose: 200.0 mg/kg/injection, schedule: Q01DX005 (ip), vehicle: saline with Tween-80): 90 % of control

CS(=O)(=O)c1nnnn1-c1ccccc1
T/C (dose: 12.5 mg/kg/injection, schedule: Q04DX003 (ip), vehicle: saline with Tween-80): 106 % of control | T/C (dose: 25.0 mg/kg/injection, schedule: Q04DX003 (ip), vehicle: saline with Tween-80): 106 % of control | T/C (dose: 50.0 mg/kg/injection, schedule: Q04DX003 (ip), vehicle: saline with Tween-80): 102 % of control and 112 % of control | T/C (dose: 100.0 mg/kg/injection, schedule: Q04DX003 (ip), vehicle: saline with Tween-80): 105 % of control

CC1(C)NN=C2C(=CC=C3NNC(C)(C)N32)n2cccc21
T/C [14]: 104 % of control | T/C [15]: 106 % of control

CCCCN(CCCC)C(=O)C(C)OC(C)=O (configuration not stated)
T/C (dose: 25.0 mg/kg/injection, schedule: Q01DX005 (ip), vehicle: saline): 95 % of control | T/C (dose: 50.0 mg/kg/injection, schedule: Q01DX005 (ip), vehicle: saline): 95 % of control | T/C (dose: 100.0 mg/kg/injection, schedule: Q01DX005 (ip), vehicle: saline): 108 % of control | T/C (dose: 200.0 mg/kg/injection, schedule: Q01DX005 (ip), vehicle: saline): 105 % of control

CC(C)(C)OSc1ccccc1
T/C [1]: 101 % of control | T/C [2]: 97 % of control | T/C [13]: 102 % of control

NC(CCN[N+](=O)[O-])C(=O)O (configuration not stated)
T/C (dose: 25.0 mg/kg/injection, schedule: Q01DX005 (ip), vehicle: Klucel (hydroxypropylcellulose) (HPC)): 103 % of control | T/C [3]: 97 % of control | T/C [4]: 96 % of control | T/C [5]: 97 % of control

CCCCCCN(C)C12CN3CN(CN(C3)C1)C2
T/C [11]: 102 % of control | T/C [12]: 102 % of control | T/C [16]: 102 % of control

CNC(=S)N=Nc1c(O)[nH]c2ccccc12
T/C [11]: 91 % of control | T/C [12]: 99 % of control | T/C [16]: 91 % of control

C/C=c1/[nH]c(=O)/c(=C\c2ccccc2)[nH]c1=O
T/C (dose: 25.0 mg/kg/injection, schedule: Q01DX009 (ip), vehicle: Klucel (hydroxypropylcellulose) (HPC)): 89 % of control | T/C [17]: 91 % of control | T/C [18]: 89 % of control

O/N=C1C=C/C(=C/c2ccccc2)c2ccccc2/1
T/C [3]: 96 % of control | T/C [4]: 92 % of control | T/C [5]: 92 % of control

O=C(Nc1ccc(Cl)cc1)Nc1nnc2nc(C(C(=O)c3cccc([N+](=O)[O-])c3Cl)c3nc4nnc(NC(=O)Nc5ccc(Cl)cc5)n4[nH]c3=O)c(=O)[nH]n12
T/C [6]: 110 % of control | T/C [7]: 101 % of control | T/C [8]: 95 % of control

C[n+]1cccc(SC2CCC3CC4CC3C2C4)c1 (configuration not stated)
T/C (dose: 12.5 mg/kg/injection, schedule: Q01DX009 (ip), vehicle: saline with Tween-80): 113 % of control | T/C (dose: 25.0 mg/kg/injection, schedule: Q01DX009 (ip), vehicle: saline with Tween-80): 102 % of control

Cc1ccnc(NC(=O)Nc2cc(Cl)ccc2Cl)c1
T/C [17]: 100 % of control | T/C [18]: 87 % of control

CCCCCCCCCCCCCCCC(=O)OCC(COP(=O)(O)OC1CCC2(C)C(=CCC3C2CCC2(C)C(C(C)CCCC(C)C)CCC32)C1)OC(=O)CCCCCCCCCCCCCCC (configuration not stated)
T/C (dose: 100.0 mg/kg/injection, schedule: Q01DX001 (ip), vehicle: Klucel (hydroxypropylcellulose) (HPC)): 97 % of control | T/C (dose: 200.0 mg/kg/injection, schedule: Q01DX001 (ip), vehicle: Klucel (hydroxypropylcellulose) (HPC)): 99 % of control | T/C (dose: 400.0 mg/kg/injection, schedule: Q01DX001 (ip), vehicle: Klucel (hydroxypropylcellulose) (HPC)): 96 % of control

O=C1C=CC(=O)C(C2OC(=O)C(Cl)=C2Cl)=C1 (configuration not stated)
T/C [14]: 110 % of control | T/C [15]: 104 % of control

CC1(C)Oc2ccc3ccc(=O)oc3c2C(O)C1O (configuration not stated)
T/C [3]: 97 % of control | T/C [4]: 96 % of control | T/C [5]: 92 % of control

Reference: PubChem BioAssay AID330 (DTP/NCI, 2004)
